Experimental data published in ChEMBL document CHEMBL3865812, “Selective killing of cancer cells with triterpenoic acid amides - The substantial role of an aromatic moiety alignment” (Eur J Med Chem, 2016).
The source made the active and inactive calls. No cut-off for these calls is given here.

Assays:
[1] = Cytotoxicity against human HT-29 cells measured after 96 hrs by SRB assay; format: functional, cell-based; details: HT-29, 96 h
[2] = Cytotoxicity against human 518A2 cells measured after 96 hrs by SRB assay; format: functional, cell-based; details: 518A2, 96 h
[3] = Cytotoxicity against human MCF7 cells measured after 96 hrs by SRB assay; format: functional, cell-based; details: MCF7, 96 h
[4] = Cytotoxicity against mouse NIH/3T3 cells measured after 96 hrs by SRB assay; format: toxicity, NIH3T3
[5] = Cytotoxicity against human A2780 cells measured after 96 hrs by SRB assay; format: functional, cell-based; details: A2780, 96 h
[6] = Solubility of compound in water; format: physicochemical; details: buffer
[7] = Cytotoxicity against human A549 cells measured after 96 hrs by SRB assay; format: functional, cell-based; details: A549, 96 h
[8] = Cytotoxicity against human 8505C cells measured after 96 hrs by SRB assay; format: functional, cell-based
A2780 [9] = test: Induction of apoptosis in human A2780 cells assessed as increase in apoptotic cells at 6 uM measured after 2 days by Annexin V/FITC/propidium iodide staining-based FACS analysis; format: functional, cell-based
[10] = Cell cycle arrest in human A2780 cells assessed as accumulation at S-phase at 6 uM measured after 24 hrs by propidium iodide staining based FACS analysis; format: functional
[11] = Cell cycle arrest in human A2780 cells assessed as decrease in G1 peak at 6 uM measured after 24 hrs by propidium iodide staining based FACS analysis; format: functional
[12] = Cell cycle arrest in human A2780 cells assessed as decrease in accumulation of cells at S-phase at 6 uM measured after 48 hrs by propidium iodide staining based FACS analysis; format: functional
[13] = Cell cycle arrest in human A2780 cells assessed as sub-G1 peak appearance at 6 uM measured after 48 hrs by propidium iodide staining based FACS analysis; format: functional
[14] = Cell cycle arrest in human A2780 cells assessed as loss of G2 peak at 6 uM measured after 24 hrs by propidium iodide staining based FACS analysis; format: functional
A2780 [15] = test: Induction of apoptosis in human A2780 cells assessed as secondary necrotic cells at 6 uM measured after 2 days by Annexin V/FITC/propidium iodide staining-based FACS analysis; format: functional, cell-based

CC(=O)O[C@H]1C[C@]2(C)[C@H]3CC=C4[C@@H]5CC(C)(C)CC[C@]5(C(=O)O)CC[C@@]4(C)[C@]3(C)CC[C@H]2C(C)(C)[C@H]1OC(C)=O
EC50 [1]: 23.1 µM | EC50 [2]: 13.8 µM | EC50 [3]: 16.1 µM | EC50 at 96 h [4]: > 30 µM

CC(=O)O[C@H]1C[C@]2(C)[C@H]3CC=C4[C@@H]5[C@@H](C)[C@H](C)CC[C@]5(C(=O)Nc5cnc6ccccc6c5)CC[C@@]4(C)[C@]3(C)CC[C@H]2C(C)(C)[C@H]1OC(C)=O
EC50 [5]: 2.8 µM | solubility [6]: Insoluble | EC50 [7]: 3.4 µM | EC50 [8]: 3.1 µM | EC50 [1]: 6.5 µM | EC50 [2]: 2.5 µM | EC50 [3]: 3.2 µM | EC50 at 96 h [4]: 2.2 µM

CC1(C)CC[C@]2(C(=O)O)CC[C@]3(C)C(=CC[C@@H]4[C@@]5(C)C[C@H](O)[C@H](O)C(C)(C)[C@@H]5CC[C@]43C)[C@@H]2C1 [AUGUSTIC ACID]
EC50 [1]: > 30 µM | EC50 [2]: 25.7 µM | EC50 [3]: 25.1 µM | EC50 at 96 h [4]: > 30 µM

CC(=O)O[C@H]1C[C@]2(C)[C@H]3CC=C4[C@@H]5[C@@H](C)[C@H](C)CC[C@]5(C(=O)Nc5cccc6ncccc56)CC[C@@]4(C)[C@]3(C)CC[C@H]2C(C)(C)[C@H]1OC(C)=O
EC50 [5]: 2.7 µM | EC50 [7]: 3.7 µM | EC50 [8]: 3.2 µM | EC50 [1]: 3.6 µM | EC50 [2]: 2 µM | EC50 [3]: 5.5 µM | EC50 at 96 h [4]: > 60 µM

CC(=O)O[C@H]1CC[C@]2(C)[C@H]3CC=C4[C@@H]5[C@@H](C)[C@H](C)CC[C@]5(C(=O)Nc5cccc6ncccc56)CC[C@@]4(C)[C@]3(C)CC[C@H]2C1(C)C
EC50 [5]: 4.4 µM | EC50 [7]: 5.1 µM | EC50 [8]: 3.5 µM | EC50 [1]: 5.1 µM | EC50 [2]: 3.5 µM | EC50 [3]: 3.9 µM | EC50 at 96 h [4]: 3.5 µM

CC(=O)O[C@H]1C[C@]2(C)[C@H]3CC=C4[C@@H]5[C@@H](C)[C@H](C)CC[C@]5(C(=O)Nc5ccc6cccnc6c5)CC[C@@]4(C)[C@]3(C)CC[C@H]2C(C)(C)[C@H]1OC(C)=O
EC50 [5]: 1.8 µM | solubility [6]: Insoluble | EC50 [7]: 3.1 µM | EC50 [8]: 2.5 µM | EC50 [1]: 2 µM | EC50 [2]: 2.4 µM | EC50 [3]: 1.6 µM | EC50 at 96 h [4]: 1.8 µM

CC(=O)O[C@H]1C[C@]2(C)[C@H]3CC=C4[C@@H]5[C@@H](C)[C@H](C)CC[C@]5(C(=O)Nc5ccc6ncccc6c5)CC[C@@]4(C)[C@]3(C)CC[C@H]2C(C)(C)[C@H]1OC(C)=O
EC50 [5]: 4.2 µM | solubility [6]: Insoluble | EC50 [7]: 5.3 µM | EC50 [8]: 4.3 µM | EC50 [1]: 9.2 µM | EC50 [2]: 4.2 µM | EC50 [3]: 6.5 µM | EC50 at 96 h [4]: 0.9 µM

CC(=O)O[C@H]1C[C@]2(C)[C@H]3CC=C4[C@@H]5CC(C)(C)CC[C@]5(C(=O)Nc5cccc6ncccc56)CC[C@@]4(C)[C@]3(C)CC[C@H]2C(C)(C)[C@H]1OC(C)=O
Activity (A2780 [9]): Active | EC50 [5]: 0.7 µM | Activity [10]: Active | EC50 [7]: 3 µM | EC50 [8]: 2.3 µM | EC50 [1]: 2.4 µM | Activity [11]: Active | EC50 [2]: 1.2 µM | EC50 [3]: 2.5 µM | Activity [12]: Active | EC50 at 96 h [4]: 8.6 µM | Activity [13]: Active | Activity [14]: Active | Activity (A2780 [15]): Active

CC(=O)O[C@H]1C[C@]2(C)[C@H]3CC=C4[C@@H]5[C@@H](C)[C@H](C)CC[C@]5(C(=O)O)CC[C@@]4(C)[C@]3(C)CC[C@H]2C(C)(C)[C@H]1OC(C)=O
EC50 [5]: 17.9 µM | EC50 [7]: 15.6 µM | EC50 [8]: 15.6 µM | EC50 [1]: 16.2 µM | EC50 [2]: 17.9 µM | EC50 [3]: 10.4 µM | EC50 at 96 h [4]: 12.7 µM

CC(=O)O[C@H]1C[C@]2(C)[C@H]3CC=C4[C@@H]5[C@@H](C)[C@H](C)CC[C@]5(C(=O)Nc5cccc6cccnc56)CC[C@@]4(C)[C@]3(C)CC[C@H]2C(C)(C)[C@H]1OC(C)=O
EC50 [5]: 6.7 µM | solubility [6]: Insoluble | EC50 [7]: > 30 µM | EC50 [8]: > 30 µM | EC50 [1]: > 30 µM | EC50 [2]: 13.3 µM | EC50 [3]: > 30 µM | EC50 at 96 h [4]: > 30 µM

CC(=O)O[C@H]1C[C@]2(C)[C@H]3CC=C4[C@@H]5CC(C)(C)CC[C@]5(C(=O)Nc5cnc6ccccc6c5)CC[C@@]4(C)[C@]3(C)CC[C@H]2C(C)(C)[C@H]1OC(C)=O
Activity (A2780 [9]): Active | EC50 [5]: 2.2 µM | Activity [10]: Active | solubility [6]: Insoluble | EC50 [7]: 7.4 µM | EC50 [8]: 5 µM | EC50 [1]: 6.3 µM | Activity [11]: Active | EC50 [2]: 2.9 µM | EC50 [3]: 9.3 µM | Activity [12]: Active | EC50 at 96 h [4]: 0.9 µM | Activity [13]: Active | Activity [14]: Active | Activity (A2780 [15]): Active

C[C@H]1[C@H](C)CC[C@]2(C(=O)O)CC[C@]3(C)C(=CC[C@@H]4[C@@]5(C)C[C@H](O)[C@H](O)C(C)(C)[C@@H]5CC[C@]43C)[C@H]12
EC50 [5]: 24.9 µM | EC50 [7]: > 30 µM | EC50 [8]: > 30 µM | EC50 [1]: > 30 µM | EC50 [2]: > 30 µM | EC50 [3]: 29.1 µM | EC50 at 96 h [4]: > 30 µM

CC(=O)O[C@H]1C[C@]2(C)[C@H]3CC=C4[C@@H]5CC(C)(C)CC[C@]5(C(=O)Nc5ccc6cccnc6c5)CC[C@@]4(C)[C@]3(C)CC[C@H]2C(C)(C)[C@H]1OC(C)=O
EC50 [5]: 1 µM | solubility [6]: Insoluble | EC50 [7]: 2.6 µM | EC50 [8]: 1.6 µM | EC50 [1]: 1.3 µM | EC50 [2]: 1.6 µM | EC50 [3]: 1.4 µM | EC50 at 96 h [4]: 0.7 µM

CC(=O)O[C@H]1C[C@]2(C)[C@H]3CC=C4[C@@H]5[C@@H](C)[C@H](C)CC[C@]5(C(=O)Nc5ccnc6ccccc56)CC[C@@]4(C)[C@]3(C)CC[C@H]2C(C)(C)[C@H]1OC(C)=O
EC50 [5]: 3.5 µM | solubility [6]: Insoluble | EC50 [7]: 8.2 µM | EC50 [8]: 6.6 µM | EC50 [1]: 5.5 µM | EC50 [2]: 6.4 µM | EC50 [3]: 4 µM | EC50 at 96 h [4]: 5.2 µM

CC(=O)O[C@H]1C[C@]2(C)[C@H]3CC=C4[C@@H]5CC(C)(C)CC[C@]5(C(=O)Nc5cccnc5)CC[C@@]4(C)[C@]3(C)CC[C@H]2C(C)(C)[C@H]1OC(C)=O
EC50 [5]: 0.9 µM | EC50 [7]: 2.8 µM | EC50 [8]: 2.3 µM | EC50 [1]: 2.2 µM | EC50 [2]: 1.7 µM | EC50 [3]: 2 µM | EC50 at 96 h [4]: 2.4 µM

CC(=O)O[C@H]1C[C@]2(C)[C@H]3CC=C4[C@@H]5CC(C)(C)CC[C@]5(C(=O)Nc5cccc6cccnc56)CC[C@@]4(C)[C@]3(C)CC[C@H]2C(C)(C)[C@H]1OC(C)=O
EC50 [5]: 5.1 µM | solubility [6]: Insoluble | EC50 [7]: > 30 µM | EC50 [8]: 16.1 µM | EC50 [1]: > 30 µM | EC50 [2]: 6.2 µM | EC50 [3]: 24.6 µM | EC50 at 96 h [4]: > 30 µM

CC(=O)O[C@H]1C[C@]2(C)[C@H]3CC=C4[C@@H]5CC(C)(C)CC[C@]5(C(=O)Nc5ccc6ncccc6c5)CC[C@@]4(C)[C@]3(C)CC[C@H]2C(C)(C)[C@H]1OC(C)=O
Activity (A2780 [9]): Active | EC50 [5]: 2 µM | Activity [10]: Active | solubility [6]: Insoluble | EC50 [7]: 4.9 µM | EC50 [8]: 3.8 µM | EC50 [1]: 4.4 µM | Activity [11]: Active | EC50 [2]: 2.9 µM | EC50 [3]: 5.8 µM | Activity [12]: Active | EC50 at 96 h [4]: 0.6 µM | Activity [13]: Active | Activity [14]: Active | Activity (A2780 [15]): Active

CC(=O)O[C@H]1C[C@]2(C)[C@H]3CC=C4[C@@H]5[C@@H](C)[C@H](C)CC[C@]5(C(=O)Nc5ccncc5)CC[C@@]4(C)[C@]3(C)CC[C@H]2C(C)(C)[C@H]1OC(C)=O
EC50 [5]: 8.3 µM | EC50 [7]: 10.1 µM | EC50 [8]: 8.5 µM | EC50 [1]: 9.4 µM | EC50 [2]: 8.3 µM | EC50 [3]: 9 µM | EC50 at 96 h [4]: 5.7 µM

CC(=O)O[C@H]1C[C@]2(C)[C@H]3CC=C4[C@@H]5[C@@H](C)[C@H](C)CC[C@]5(C(=O)Nc5cccnc5)CC[C@@]4(C)[C@]3(C)CC[C@H]2C(C)(C)[C@H]1OC(C)=O
EC50 [5]: 2 µM | EC50 [7]: 3.5 µM | EC50 [8]: 2.7 µM | EC50 [1]: 3.2 µM | EC50 [2]: 2 µM | EC50 [3]: 3.5 µM | EC50 at 96 h [4]: 4.2 µM

CC(=O)O[C@H]1C[C@]2(C)[C@H]3CC=C4[C@@H]5CC(C)(C)CC[C@]5(C(=O)Nc5ccnc6ccccc56)CC[C@@]4(C)[C@]3(C)CC[C@H]2C(C)(C)[C@H]1OC(C)=O
Activity (A2780 [9]): Active | EC50 [5]: 2 µM | Activity [10]: Active | solubility [6]: Insoluble | EC50 [7]: 4.2 µM | EC50 [8]: 3.4 µM | EC50 [1]: 4.1 µM | Activity [11]: Active | EC50 [2]: 2.4 µM | EC50 [3]: 4.3 µM | Activity [12]: Active | EC50 at 96 h [4]: 2.9 µM | Activity [13]: Active | Activity [14]: Active | Activity (A2780 [15]): Active

CC(=O)O[C@H]1C[C@]2(C)[C@H]3CC=C4[C@@H]5CC(C)(C)CC[C@]5(C(=O)Nc5ccncc5)CC[C@@]4(C)[C@]3(C)CC[C@H]2C(C)(C)[C@H]1OC(C)=O
EC50 [5]: 1.6 µM | EC50 [7]: 4 µM | EC50 [8]: 4.1 µM | EC50 [1]: 2.7 µM | EC50 [2]: 4.2 µM | EC50 [3]: 3.1 µM | EC50 at 96 h [4]: 1.8 µM
